US20230132378A9, “COMPOSITIONS AND METHODS FOR TREATING HEMORRHAGIC STROKE” (UNM RAINFOREST INNOVATIONS, priority 2017, published 2023)

Tests used:
primary neurons = assay: Cytotoxicity (Cytotox 96 LDH release) in primary neurons; assay type: cell-based; conditions: for neuron toxicity under hypoxia / cell death in normoxia: three-hour exposure; for neuron toxicity under hypoxia: 2.5-7.5 μM; for cell death in normoxia: any concentration tested
primary astrocytes = assay: Cytotoxicity (Cytotox 96 LDH release) in primary astrocytes; assay type: cell-based; conditions: three-hour exposure, 5 and 7.5 μM
Experimental: Astrocytic death rate was measured using Cytotox 96 nonradioactive cytotoxicity assay kit (Promega, Madison, Wis.), which quantitatively measures lactate dehydrogenase (LDH) release from dead cells. Astroytes (5×10^3 cells/well) were seeded into 96-well microtiter plates. Following three hours normoxia or hypoxia treatment, 50 μl of the reconstituted substrate mixture was added to each well of the plate. Thirty minutes later, 50 μl of the stop solution was added to each well, and the absorbance was measured at 490 nm in a microplate reader (Bio-Rad 3350, Bio-Rad Laboratories, Inc. Hercules, Calif.). Triton-X 100-treated cells were used as 100% cell death control. The cell death rate was calculated by using the formula: Cell death rate=(Experimental absorbance value−culture medium absorbance value)/(Triton-X 100-treated absorbance value−culture medium absorbance value).

[1] = tested on: labile zinc accumulation in brain tissue after hemorrhagic stroke; assay: Labile zinc staining (Fluozin-3) on brain slices after collagenase-induced ICH; assay type: in vivo, rat; conditions: rats pretreated with 10 mg/kg i.p. one hour before collagenase injection; versus saline control
Experimental: (§1) The Laboratory Animal Care and Use Committee of the University of New Mexico approved all experimental protocols. The animals were used in compliance with the NIH Guide for Care and Use of Laboratory Animals. Male Sprague Dawley rats (Charles River Laboratories, Inc., Wilmington, Mass.) weighing 290 g to 320 g were anesthetized with isoflurane (5% for induction, 2% for maintenance) in N2O/O2 (70:30%) during surgical procedures, and the body temperature was maintained at 37.5° C.±0.5° C. using a heating pad. A small burr hole was made at 3.5 mm right of the bregma. 0.2 U collagenase (Sigma-Aldrich, St. Louis, Mo.) in 1 μl sterile saline was injected to 6.0 mm deep through the burr hole. The needle was removed at five minutes after collagenase injection to prevent backflow. A total of 49 rats were used in this study. […]
To detect labile zinc in brain tissue, cryosections 16 μm thick were stained with the zinc-specific membrane-permeable fluorescent dyes Fluozin-3 (Invitrogen, Thermo Fisher Scientific, Carlsbad, Calif.). […] After washing in saline, images were acquired by a fluorescence microscope (Olympus IX71, Olympus Corp., Center Valley, Pa.) with a GFP dichroic mirror.

[2] = tested on: cell death in the hemorrhagic brain; assay: Brain cell death by TUNEL assay after collagenase-induced ICH; assay type: in vivo, rat
Experimental: as §1
A standard terminal deoxynucleotidyl transferase—mediated dUTP nick-end labeling (TUNEL) procedure for frozen tissue sections was performed (Click-iT TUNEL Alexa Fluor 488 Imaging Assay kit (Thermo Fisher Scientific, Waltham, Mass.). Histological images were captured on a fluorescence microscope (Olympus IX71, Olympus Corp., Center Valley, Pa.) with a TRITC dichroic mirror.

ICH-induced brain damage = assay: Brain damage by T2-weighted MRI after collagenase-induced ICH; assay type: in vivo, rat
Experimental: (§2) The Laboratory Animal Care and Use Committee of the University of New Mexico approved all experimental protocols. The animals were used in compliance with the NIH Guide for Care and Use of Laboratory Animals. Male Sprague Dawley rats (Charles River Laboratories, Inc., Wilmington, Mass.) weighing 290 g to 320 g were anesthetized with isoflurane (5% for induction, 2% for maintenance) in N2O/O2 (70:30%) during surgical procedures, and the body temperature was maintained at 37.5° C.±0.5° C. using a heating pad. A small burr hole was made at 3.5 mm right of the bregma. 0.2 U collagenase (Sigma-Aldrich, St. Louis, Mo.) in 1 μl sterile saline was injected to 6.0 mm deep through the burr hole. The needle was removed at five minutes after collagenase injection to prevent backflow. A total of 49 rats were used in this study.
All multimodal magnetic resonance imaging (MRI) of the rat was performed by using a 4.7-Tesla MRI scanner (Bruker Biospin, Billerica, Mass.), which was equipped with a 40-cm bore, a 660 mT/m (rise time within 120 μs) gradient and shim systems (Bruker Biospin, Billerica, Mass.). The rats were anaesthetized with 2% isoflurane (Clipper Distributing Company, LLC, St. Joseph, Mo.) during MRI. At the same time respiration and heart rate were monitored. The body temperature of the rats was maintained at 37.0° C.±0.5° C. […]

[3] = tested on: ZnPP generation in the hemorrhagic brain; assay: ZnPP autofluorescence imaging on hemorrhagic brain slices; assay type: in vivo, rat
Experimental: as §2
N,N,N′,N′-tetrakis-(2-Pyridylmethyl)ethylenediamine (TPEN, Sigma-Aldrich, St. Louis, Mo.) was dissolved in dimethyl sulfoxide (DMSO) to 25 mg/ml and then further diluted in physiological saline to a final concentration of 2.5 mg/ml. 10 mg/kg TPEN was intraperitoneal injected at one hour before collagenase injection. Saline with 10% DMSO was used as control.
N-methyl protoporphyrin IX (Santa Cruz Biotechnology, Inc., Dallas, Tex.), a ferrochelatase inhibitor was dissolved in DMSO to 200 mg/ml and then further diluted in physiological saline to a final concentration of 20 mg/ml. […]

[4] = tested on: ZnPP in hemorrhagic hemisphere tissue; assay: Fluorescence spectrophotometry of ZnPP in brain tissue extract; assay type: in vivo, rat; conditions: TPEN pretreatment
Experimental: as §1
The animals were euthanized at 24 hours after collagenase injection. […] After centrifugation at 13,000×g, the fluorescence intensity (excitation=416 nm, emission=588 nm) was determined using a SpectraMax M2 Multi-Mode Microplate Readers (Molecular Devices LLC, Sunnyvale, Calif.) as previously described (Nakamura et al., 2011. J Control Release 155(3):367-375. After being treated with heparin as an anti-coagulant, 50 μl blood was diluted in ethanol. Followed by centrifugation, the fluorescence intensity of ZnPP in the ethanol extract supernatant was measured.

whole rat blood = assay: ZnPP generation in whole blood with zinc under hypoxia; conditions: 100 μM zinc, hypoxia three hours, P=0.00096
Experimental: The animals were euthanized at 24 hours after collagenase injection. The brains were harvested and cut into 2-mm thick coronal slice. The tissue with visible blood at the hemorrhagic hemisphere of each slice was collected. And the tissue at the corresponding location at the contralateral hemisphere was also collected. The tissue was homogenized on ice in ethanol. After centrifugation at 13,000×g, the fluorescence intensity (excitation=416 nm, emission=588 nm) was determined using a SpectraMax M2 Multi-Mode Microplate Readers (Molecular Devices LLC, Sunnyvale, Calif.) as previously described (Nakamura et al., 2011. J Control Release 155(3):367-375. After being treated with heparin as an anti-coagulant, 50 μl blood was diluted in ethanol. Followed by centrifugation, the fluorescence intensity of ZnPP in the ethanol extract supernatant was measured.
Blood was drawn from normal Sprague Dawley rats. Blood was subjected to hypoxia by incubating in a humidified airtight chamber (Billups-Rothenberg, Inc., San Diego, Calif.) equipped with an air lock and flushed with 95% N2/5% CO2 for 15 minutes. Then the chamber was scaled and kept at 37° C. for three hours.

ferrochelatase = target: T1, ferrochelatase (Homo sapiens, UniProt P22830); conditions: cited from earlier work
T1 sequence (P22830 55-423): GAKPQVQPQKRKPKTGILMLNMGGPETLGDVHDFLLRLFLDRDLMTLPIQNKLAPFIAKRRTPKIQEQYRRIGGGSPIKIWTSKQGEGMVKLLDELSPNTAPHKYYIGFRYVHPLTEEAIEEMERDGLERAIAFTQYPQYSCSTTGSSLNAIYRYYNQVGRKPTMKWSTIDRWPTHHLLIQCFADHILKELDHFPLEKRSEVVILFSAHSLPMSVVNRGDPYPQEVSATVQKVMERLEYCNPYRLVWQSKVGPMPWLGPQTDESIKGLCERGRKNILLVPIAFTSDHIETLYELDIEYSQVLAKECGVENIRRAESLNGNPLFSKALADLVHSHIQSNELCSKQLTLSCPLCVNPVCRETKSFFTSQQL

[5] = tested on: brain of permanent MCAO rat model; assay: ZnPP injection into brain parenchyma of MCAO or normal rats, T2-weighted MRI; assay type: in vivo; conditions: MCAO rats, ZnPP 10 μg/kg into brain parenchyma of ischemic side
Experimental: All multimodal magnetic resonance imaging (MRI) of the rat was performed by using a 4.7-Tesla MRI scanner (Bruker Biospin, Billerica, Mass.), which was equipped with a 40-cm bore, a 660 mT/m (rise time within 120 μs) gradient and shim systems (Bruker Biospin, Billerica, Mass.). The rats were anaesthetized with 2% isoflurane (Clipper Distributing Company, LLC, St. Joseph, Mo.) during MRI. At the same time respiration and heart rate were monitored. The body temperature of the rats was maintained at 37.0° C.±0.5° C. The success of the intracerebral hemorrhage model and brain damage was estimated by T2-weighted images. T2-weighted images were acquired with a fast spin-echo sequence (rapid acquisition with relaxation enhancement (RARE)) (Repetition Time (TR)/Echo Time (TE)=5,000 ms/56 ms, Field of View (FOV)=4 cm×4 cm, slice thickness=1 mm, inter-slice distance=1.1 mm, number of slices=12, matrix=256×256, number of average=3).
Middle cerebral artery occlusion (MCAO) surgery was used to induce focal cerebral ischemia through intraluminal filament methods as described previously (Zhao et al., 2014, Stroke 45:1139-1147). The animals underwent right MCAO for 24 hours. ZnPP (10 μg/kg) in […] or 5 μl saline was injected to 6.0 mm deep at 3.5 mm right of the bregma through a burr hole on normal or MCAO rat, 10 minutes after MCAO onset.

heme oxygenase-1 (HO-1) = target: T2, heme oxygenase-1 (HO-1) (Homo sapiens, UniProt P09601); conditions: levels as low as; cited from earlier work
T2 sequence (P09601 1-288): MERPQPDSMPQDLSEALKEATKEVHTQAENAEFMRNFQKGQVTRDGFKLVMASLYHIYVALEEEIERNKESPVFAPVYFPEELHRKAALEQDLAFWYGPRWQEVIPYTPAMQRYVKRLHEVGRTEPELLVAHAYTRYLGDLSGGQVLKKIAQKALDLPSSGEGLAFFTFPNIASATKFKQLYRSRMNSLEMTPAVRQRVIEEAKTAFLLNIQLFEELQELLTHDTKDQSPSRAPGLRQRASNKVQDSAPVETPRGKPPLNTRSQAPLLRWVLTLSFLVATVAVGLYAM

## hemin
Primary neurons; hypoxia
  neuron toxicity under hypoxia: significant dose-dependent increases
Primary neurons
  cell death in normoxia: Neither ZnPP nor hemin induced significant cell death
Primary astrocytes
  astrocyte toxicity in hypoxia: did not

## c1ccc(CN(CCN(Cc2ccccn2)Cc2ccccn2)Cc2ccccn2)nc1 [TPEN, N,N,N′,N′-tetrakis-(2-Pyridylmethyl)ethylenediamine]
[1]
  zinc fluorescence signal (Fluozin-3) around hemorrhagic area: significantly reduced
[2]; TPEN 10 mg/kg i.p. one hour before collagenase injection
  TUNEL signal (cell death) at edge of hemorrhagic area: markedly decreased
ICH-induced brain damage; TPEN pretreatment, 24 hours after collagenase-induced ICH
  hyperintense lesion on T2-weighted MRI (brain damage): significantly reduced
[3]; TPEN pretreatment, 24 hours after collagenase injection, P=0.0034
  ZnPP fluorescence on brain slices: significantly decreased
[4]
  ZnPP formed at the hemorrhagic hemisphere (fluorescence intensity at 588 nm): significantly reduced
Whole rat blood
  zinc-induced ZnPP generation in hypoxic blood: decreased

## N-methyl protoporphyrin IX [N-methyl PP]
[2]; N-methyl PP 100 mg/kg i.p. pretreatment, P=0.000039
  number of TUNEL positive cells relative to saline treated control group: 14%
ICH-induced brain damage; N-methyl PP pretreatment one hour before collagenase-induced ICH, P=0.043
  brain damage in ICH by T2-weighted MRI: significantly reduced
[3]; N-methyl PP 100 mg/kg i.p. one hour before ICH induction, P=0.0037
  reduction of ZnPP fluorescence in brain tissue versus no treatment: about two thirds
ferrochelatase
  inhibition of ferrochelatase: potently inhibited

## C=CC1=C(C)c2cc3[n-]c(cc4nc(cc5[n-]c(cc1n2)c(C)c5C=C)C(C)=C4CCC(=O)O)c(CCC(=O)O)c3C.[Zn+2] [ZnPP, zinc protoporphyrin]
Primary neurons; hypoxia
  neuron toxicity under hypoxia: significant dose-dependent increases
Primary neurons; hypoxia, 2.5 μM P=0.0092, 5 μM P=0.0046, 7.5 μM P=0.0059
  toxicity in hypoxia compared with hemin (neurons): greater than that of hemin
Primary neurons
  cell death in normoxia: Neither ZnPP nor hemin induced significant cell death
Primary astrocytes
  astrocyte toxicity in hypoxia: dose dependent increase in toxicity
[5]
  brain damage area on T2-weighted MRI after ZnPP injection: significantly increased
Heme oxygenase-1 (HO-1)
  level significantly decreasing HO-1 activity: 0.15
